In ChEMBL document CHEMBL3244190, “2,3-Dihydroxy-9-amino-9,10-dihydrophenanthrene, a rigid congener of dopamine and isoapomorphine” (J Med Chem, 1978):
Active and inactive are the calls of the source. The rule behind the calls is not given here.

Tests used:
[1] = target: T1, Adenylate cyclase (Rattus norvegicus) (UniProt D4A3N4+P26770+Q04400+P26769+Q03343+P40146+Q8CFM9+P21932); experiment: Activation of rat striatal homogenate adenylate cyclase assessed as cAMP level at 100 uM after 2.5 mins relative to control
Canis familiaris = experiment: Induction of vasodilation in intraarterially dosed anesthetized Mongrel dog at 3 umol; assay type: functional, organism-based; conditions: Canis lupus familiaris
[2] = target: T1, Adenylate cyclase (Rattus norvegicus); experiment: Activation of rat striatal homogenate adenylate cyclase assessed as cAMP level at 10 uM after 2.5 mins relative to control
[3] = target: T1, Adenylate cyclase (Rattus norvegicus); experiment: Inhibition of dopamine-induced adenylate cyclase activation in rat striatal homogenate assessed as enzyme activity at 100 uM after 2.5 mins relative to control; design: scale not given: the % may be the effect or the level left

SMILES	Activity [1] [%]	Activity (Canis familiaris)	Activity [2] [%]	Activity [3] [%]
NCCc1ccc(O)c(O)c1	150			
NC1Cc2cc(O)c(O)cc2-c2ccccc21 (stereo not given)	92	inactive	100	149
